From ChEMBL document CHEMBL5252644, “Discovery of SYD5115, a novel orally active small molecule TSH-R antagonist” (Bioorg Med Chem, 2023)

Experiments:
[1] = Oral bioavailability in Wistar Han rat at 5 mg/kg administrated for 24 hrs by LC-MS/MS analysis; format: ADME, organism-based; details: in vivo
[2] = Cmax in Wistar Han rat at 5 mg/kg,po administrated for 24 hrs by LC-MS/MS analysis; format: ADME, organism-based; parameters: dose 5 mg/kg, time 24 hrs, route po; details: in vivo
[3] = AUC (0-infinity) in Wistar Han rat at 2 mg/kg,iv administrated for 24 hrs by LC-MS/MS analysis; format: ADME, organism-based; parameters: time 24 hrs, dose 2 mg/kg, route iv; details: in vivo
[4] = AUC (0-infinity) in Wistar Han rat at 5 mg/kg,po administrated for 24 hrs by LC-MS/MS analysis; format: ADME, organism-based; parameters: time 24 hrs, dose 5 mg/kg, route po; details: in vivo
[5] = Tmax in Wistar Han rat at 5 mg/kg,po administrated for 24 hrs by LC-MS/MS analysis; format: ADME, organism-based; details: in vivo
[6] = Volume of distribution at steady state in Wistar Han rat at 2 mg/kg,iv administrated for 24 hrs by LC-MS/MS analysis; format: ADME, organism-based; details: in vivo, read-out: Vdss
[7] = Drug concentration in M22-induced Wistar rat plasma at 12.5 micromol/kg,po measured upto 24 hrs by LC-MS/MS analysis; format: ADME, cell-free; details: dose 12.5 µmol/kg
[8] = Drug concentration in M22-induced Wistar rat plasma at 12.5 to 100 micromol/kg,po measured upto 24 hrs by LC-MS/MS analysis; format: ADME, cell-free; details: dose 12.5-100 µmol/kg

Drug uptake [7] | Drug uptake [8] | Compound | bioavailability [1] [%] | Cmax [2] [ng/mL] | AUC(0-inf) [3] [ng·h/mL] | AUC(0-inf) [4] [ng·h/mL] | Tmax [5] [h] | Vd [6] [L/kg]
– | – | CC(=O)N1CCC(C)(c2ccccc2)c2cc(NC(=O)CCc3cccc(C(F)(F)F)c3)ccc21 (racemic) | 8 | 52 | 694 | 141 | 1 | 2.41
Not Active | Active | CC(=O)N1c2cnc(NC(=O)O[C@@H](C)C(C)(C)C)nc2C2(CCC(F)(F)CC2)C1(C)C | 47 | 145 | 617 | 709 | 1 | 8.76
